Data: ChEMBL document CHEMBL1125278, “Novel cerebroprotective agents with central nervous system stimulating activity. 2. Synthesis and pharmacology of the 1-(acylamino)-7-hydroxyindan derivatives” (1991)

Legend:
[1] = system: Mus musculus; assay: Spontaneous movement (SMT) in seconds, was measured after oral administration of 30 mg/kg in mice to test for promoting effects on recovery from coma.; format: functional
[2] = system: Mus musculus; assay: Time of recovery of righting reflux (RRT) in seconds was measured after oral administration of 30 mg/kg in mice for the promotional effect on recovery from coma.; format: functional
[3] = system: Mus musculus; assay: Antihypoxic effect tested by the ratio of survival time (SVT) of test mice to that of control group, dosed orally 30 mg/kg; format: functional; details: route oral
[4] = system: Mus musculus; assay: Antihypoxic effect by the ratio of survival time (SVT) of test mice to that of control group at a dose of 30 mg/kg administered subcutaneously.; format: functional; details: route subcutaneous
[5] = system: Mus musculus; assay: Time of recovery of spontaneous movement (SMT) in seconds was measured after administration of 100 mg/kg orally in mice for the promotional effect on recovery from coma.; format: functional
[6] = system: Mus musculus; assay: Antihypoxic effect by the ratio of survival time (SVT) of test mice to that of control group at a dose of 100 mg/kg administered intraperitoneally.; format: functional
[7] = system: Mus musculus; assay: Antihypoxic effect by the ratio of survival time (SVT) of test mice to that of control group at a dose of 100 mg/kg administered orally.; format: functional, organism-based; parameters: dose 100 mg/kg
[8] = system: Mus musculus; assay: Time of recovery of righting reflux (RRT) in seconds was measured after administration of 100 mg/kg orally in mice for the promotional effect on recovery from coma.; format: functional
[9] = system: Mus musculus; assay: Antihypoxic effect tested by the ratio of survival time (SVT) of test mice to that of control group, dosed intraperitoneally at 30 mg/kg; format: functional; details: route intraperitoneal
[10] = system: Mus musculus; assay: Antihypoxic effect by the survival time (SVT) in mice at a dose of 30 mg/kg administered intraperitoneally.; format: functional; details: route intraperitoneal

Molecule | SMT [1] [s] | RRT [2] [s] | SVT [3] [%] | SVT [9] [%] | also measured
Cc1cc(C)c2c(c1O)C(NC(=O)CN1CCN(c3ccccc3F)CC1)C(C)(C)C2 (stereo not given) | 123.8 | 89 | 99.9 |  | 
CCC(C)c1cc(C)c2c(c1O)C(N)CC2 (stereo not given) | 48.9 | 44.2 | 166.5 |  | SVT [4]: 276.5%
Cc1cc(C)c2c(c1O)C(NC(=O)Cn1ccnc1)C(C)(C)C2 (stereo not given) | 66.4 | 76.8 | 71.8 |  | 
VITAMIN E |  |  |  |  | SMT [5]: 83.5 s; SVT [6]: 96.7%; SVT [7]: 178%; RRT [8]: 92.2 s
COc1cccc(N2CCN(CC(=O)NC3c4c(c(C)cc(C)c4OC)CC3(C)C)CC2)c1 (stereo not given) | 61.8 | 72.6 | 93.4 |  | 
Cc1cc(C)c2c(c1O)C(NC(=O)CN1CCCC1C(=O)O)C(C)(C)C2 (stereo not given) | 150.3 | 103.3 | 92.3 |  | 
Cc1cc(C)c2c(c1O)C(NC(=O)CCN1CCN(c3cccc(Cl)c3)CC1)C(C)(C)C2 (stereo not given) | 74 | 95.4 |  | 79.5 | 
Cc1cc(C)c2c(c1O)C(NC(=O)CN1CCOCC1)C(C)(C)C2 (stereo not given) | 92.2 | 106.9 |  | 104.3 | 
Cc1cc(C)c2c(c1O)C(NC(=O)CN1CCN(c3cccc(Cl)c3Cl)CC1)C(C)(C)C2 (stereo not given) | 126.6 | 99.2 | 94.6 |  | 
Cc1cc(C)c2c(c1O)C(NC(=O)CN1CCN(c3cccc(Cl)c3)CC1)C(C)(C)C2 (stereo not given) | 128.1 | 88.4 | 147.9 | 456.6 | 
Cc1cc(C)c2c(c1O)C(NCC(=O)N1CCN(c3cccc(Cl)c3)CC1)C(C)(C)C2 (stereo not given) | 95.2 | 116.3 |  | 146.8 | 
COc1cccc(N2CCN(C(=O)CNC3c4c(O)c(C)cc(C)c4CC3(C)C)CC2)c1 (stereo not given) | 111 | 84 |  | 97.7 | 
COc1ccccc1N1CCN(CC(=O)NC2c3c(O)c(C)cc(C)c3CC2(C)C)CC1 (stereo not given) | 117.3 | 97.2 | 94.4 |  | 
Cc1cc(C)c2c(c1O)C(NC(=O)CN1CCN(c3ccccc3Cl)CC1)C(C)(C)C2 (stereo not given) | 77.2 | 86.5 | 117.3 |  | 
CCCCCCCCCCC(=O)NC1CCc2c(C)cc(C)c(O)c21 (stereo not given) |  |  |  |  | SVT [10]: 94.5%
Cc1cccc(N2CCN(CC(=O)NC3CCc4c(C)cc(C)c(O)c43)CC2)c1C (stereo not given) |  |  |  | 134.3 | 
COc1cccc(N2CCN(CC(=O)NC3c4c(O)c(C)cc(C)c4CC3c3ccc(Cl)cc3)CC2)c1 (stereo not given) | 94.3 | 80.1 | 91.7 |  | 
CCC(C)c1cc(C)c2c(c1O)C(NC(=O)CN1CCN(c3cccc(Cl)c3)CC1)CC2 (stereo not given) | 81.9 | 90.6 | 144.5 | 224.8 | 
Cc1cc(C)c(N2CCN(CC(=O)NC3c4c(O)c(C)cc(C)c4CC3(C)C)CC2)c(C)c1 (stereo not given) | 84 | 87.6 | 100.3 |  | 
Cc1cc(C)c2c(c1O)C(N)C(c1ccccc1)C2 (stereo not given) | 28.9 | 34.3 | 114.1 | 185.7 | 
Cc1ccc(Cl)cc1N1CCN(CC(=O)NC2c3c(O)c(C)cc(C)c3CC2(C)C)CC1 (stereo not given) | 74 | 91.7 | 103.2 |  | 
Cc1cc(C)c2c(c1O)C(NC(=O)CN1CCCCC1)C(C)(C)C2 (stereo not given) | 84.2 | 100.7 |  | 112.7 | 
Cc1cc(C)c2c(c1O)C(NC(=O)CN1CCN(c3cccc(Br)c3)CC1)C(C)(C)C2 (stereo not given) | 91 | 81.8 | 83.2 |  | 
CCC(C)c1cc(C)c2c(c1O)C(NC(=O)CN1CCN(c3cccc(Cl)c3)CC1)C(C)(C)C2 (stereo not given) | 80.3 | 99.4 |  | 147.7 | 
COc1ccc(N2CCN(CC(=O)NC3c4c(O)c(C)cc(C)c4CC3(C)C)CC2)cc1OC (stereo not given) | 81 | 59.5 | 85.7 |  | 
Cc1cc(C)c2c(c1O)C(NC(=O)CN1CCCC1)C(C)(C)C2 (stereo not given) | 66.4 | 85.8 |  | 134.2 | 
Cc1cc(C)c2c(c1O)C(NC(=O)CN1CCN(c3ccc(Cl)c(Cl)c3)CC1)C(C)(C)C2 (stereo not given) | 108.2 | 93.2 | 100.1 |  | 
CCOc1ccccc1N1CCN(CC(=O)NC2c3c(O)c(C)cc(C)c3CC2(C)C)CC1 (stereo not given) | 71.8 | 90.3 | 130.4 |  | 

Molecule | SMT [1] [s] | RRT [2] [s] | SVT [3] [%] | SVT [9] [%] | also measured
Cc1cc(C)c2c(c1O)C(NC(=O)CN1CCN(c3ccc([N+](=O)[O-])cc3)CC1)C(C)(C)C2 (stereo not given) | 90.6 | 99.5 | 107.9 |  | 
Cc1cc(C)c2c(c1O)C(NC(=O)CN1CCN(c3ccc(F)cc3)CC1)C(C)(C)C2 (stereo not given) | 121.4 | 110.5 | 96.2 |  | 
CCC(C)c1cc(C)c2c(c1O)C(NC(=O)CN1CCN(c3cccc(Cl)c3Cl)CC1)CC2 (stereo not given) | 117.4 | 98 | 119.2 | 122.4 | 
Cc1cc(C)c2c(c1O)C(NC(=O)CN1CCN(c3cccc(Cl)c3)CC1)C(c1ccc(Cl)cc1)C2 (stereo not given) | 99.4 | 98 | 81.3 |  | 
COc1cccc(N2CCN(CC(=O)NC3CCc4c(C)cc(C)c(O)c43)CC2)c1 (stereo not given) | 54.7 | 64.2 | 77.2 |  | 
COc1ccc(N2CCN(CC(=O)NC3c4c(O)c(C)cc(C)c4CC3(C)C)CC2)cc1 (stereo not given) | 63.1 | 82.3 | 100.6 |  | 
Cc1ccc(C(=O)NC2CCc3c(C)cc(C)c(O)c32)cc1 (stereo not given) |  |  |  | 68.8 | 
CCC(C)c1cc(C)c2c(c1O)C(NC(=O)CN1CCN(c3ccccc3)CC1)CC2 (stereo not given) | 78.2 | 80.3 | 85.9 | 89.3 | 
Cc1cc(C)c2c(c1O)C(NC(=O)CN1CCN(c3cccc(F)c3)CC1)C(C)(C)C2 (stereo not given) | 72.3 | 82.8 | 122.7 |  | 
CCC(C)c1cc(C)c2c(c1O)C(NC(=O)CN1CCN(c3cccc(OC)c3)CC1)CC2 (stereo not given) | 103.5 | 99.1 | 162.3 | 218.5 | 
COc1cccc(N2CCN(CC(=O)NC3c4c(O)ccc(C)c4CC3(C)C)CC2)c1 (stereo not given) | 64.7 | 62.9 | 97.2 |  | 
Cc1ccc(N2CCN(CC(=O)NC3c4c(O)c(C)cc(C)c4CC3(C)C)CC2)cc1Cl (stereo not given) | 117.7 | 103.9 | 90.5 |  | 
CCC(C)c1cc(C)c2c(c1O)C(NC(=O)CN1CCN(c3cccc(C)c3)CC1)CC2 (stereo not given) | 125.1 | 91.9 | 110.5 | 172.2 | 
Cc1cc(C)c2c(c1O)C(NC(=O)CN1CCN(c3cc(Cl)cc(Cl)c3)CC1)C(C)(C)C2 (stereo not given) | 71.1 | 76.1 | 106.4 |  | 
Cc1cc(C)c2c(c1O)C(NCCN1CCN(c3cccc(Cl)c3)CC1)C(C)(C)C2 (stereo not given) | 59.9 | 64.8 |  | 141.3 | 
COc1cccc(N2CCN(CCNC3c4c(O)c(C)cc(C)c4CC3(C)C)CC2)c1 (stereo not given) | 112.1 | 110 |  | 120.8 | 
Cc1cc(C)c2c(c1O)C(NC(=O)CN1CCSCC1)C(C)(C)C2 (stereo not given) | 119.9 | 110.8 |  | 100.8 | 
COc1cccc(N2CCN(CC(=O)NC3c4c(O)c(C)cc(C)c4CC3Cc3ccccc3)CC2)c1 (stereo not given) |  |  | 123.1 |  | 
Cc1cc(C)c2c(c1O)C(NC(=O)CN1CCCC1=O)C(C)(C)C2 (stereo not given) | 88.8 | 89.2 |  | 135.3 | 
Cc1cc(C)c2c(c1O)C(NC(=O)CCl)CC2 (stereo not given) |  |  |  |  | SVT [10]: 116.4%
CCCc1cc(C)c2c(c1O)C(NC(=O)CN1CCN(c3cccc(OC)c3)CC1)C(C)(C)C2 (stereo not given) | 107.2 | 114.6 | 95 |  | 
CCC(C)c1cc(C)c2c(c1O)C(NC(=O)CN1CCN(c3cc(Cl)cc(Cl)c3)CC1)CC2 (stereo not given) | 100.6 | 114 | 113.2 | 139.4 | 
COc1cccc(N2CCN(CCC(=O)NC3c4c(O)c(C)cc(C)c4CC3(C)C)CC2)c1 (stereo not given) | 92.4 | 98 | 91.8 |  | 
Cc1ccccc1C1Cc2c(C)cc(C)c(O)c2C1NC(=O)CN1CCN(c2cccc(Cl)c2)CC1 (stereo not given) | 66 | 75.1 | 123.7 |  | 
COc1cccc(N2CCN(CC(=O)NC3c4c(O)c(C)cc(C)c4CC3c3ccccc3)CC2)c1 (stereo not given) | 80.6 | 82 | 78.3 |  | 
Cc1cc(C)c2c(c1O)C(NC(=O)CN1CCN(c3cc(Cl)ccc3Cl)CC1)C(C)(C)C2 (stereo not given) | 69.4 | 73.6 | 100 |  | 
Cc1cc(C)c2c(c1O)C(NC(=O)CN1CCN(c3cccc(C(F)(F)F)c3)CC1)C(C)(C)C2 (stereo not given) | 83.7 | 89.5 | 107.8 |  | 
